The source of these data is a melting point compilation (Tetko et al.; mined from patent text by program, amines drawn as free bases though some values may be those of a salt).

Structures are written as SMILES. Some results are limits rather than exact numbers.

With `COC(=O)c1ccc2c(c1)CN(c1c(F)cc3c(=O)c(C(=O)O)cn(-c4ccc(F)cc4F)c3c1F)C2`, the melting point lay within 248 to 251 °C.
The result for `O=C(O)Cc1ccc(OCCNC(=O)C2Cc3ccccc3N2S(=O)(=O)c2ccc(-c3ccc(F)cc3)c(C(F)(F)F)c2)cc1` (stereo unspecified) reads 92 °C; that for `O=C(Cc1ccccc1Cl)N1CCCc2ncc3ccccc3c21`, 176 to 178 °C; that for `COCCc1nc2c(N)nc3c(c2n1CCCCNS(=O)(=O)c1ccc(F)cc1)CCCC3`, 191 to 193 °C.
With `CCCc1nc2c(N)nc3cc(-c4ccccc4NC(C)=O)ccc3c2s1`, the melting point was in the range of 206 to 209 °C.
Under `COCC(NC(C)=O)C(=O)NCc1ccccc1` (stereo unspecified) stands 142 to 143 °C; under `CCOC(=O)Cn1c2c([nH]c(=O)c1=O)CCC1=C2C=C(n2ccc(C(=O)O)c2)CC1`, 282 °C; under `CC1CNc2cccc3c(=O)c(C(=O)O)cn1c23` (stereo unspecified), over 250 °C.
For the compound `CCOC(=O)c1cnc2c(F)c(F)ccc2c1`, the melting point is 118 °C.
Under `CC[C@H](C)[C@H](OCc1ccccc1)[C@H]1[C@H]([N+](=O)[O-])[C@@H]([C@@H](OCc2ccccc2)C(C)C)N[C@@H]1C(=O)O` stands 172 to 174 °C; under `CC(C)Cc1nc2c(N)nc3c(c2n1CC(C)C)CCCC3`, 160 to 161 °C; under `Cc1cc2c3c(ccc2[nH]1)OCC(CN1CC=C(c2c[nH]c4ccccc24)CC1)O3` (stereo unspecified), 212 to 215 °C.
The result for `CC(=O)Nc1nc(CCc2ccc(NC(=O)OC(C)(C)C)cc2)c(C(=O)NCc2ccc(S(C)(=O)=O)cc2)s1` reads 192 to 193 °C.
In turn, `CCN(CC)CCCN1c2cc(C)c(C)cc2N(C)C(=O)c2c(C)cc(C)nc21` displayed a melting point of 104 to 106 °C.
Under `CN(C)C(=O)COc1ccc2c(c1)C[C@@H](NC(=O)OCc1ccccc1)CC2` stands 117 to 118 °C; under `C#CCn1c(C(F)(F)F)c(C(C)O)sc1=O` (racemic), 77 to 78 °C.
The compound `O=S1(=O)N=CN(C2CC2)c2c(F)cc(F)c(F)c21` yielded a melting point of 166 to 168 °C.
The result for `COc1ccc(-c2cc(C(F)(F)F)ccc2/C=C/C(=O)Nc2ccc3[nH]ccc3c2)cn1` reads 219 to 221 °C.
`O=CN(O)C(CS(=O)(=O)c1ccc(-c2ccc(C(F)(F)F)cc2)cc1)c1ccc(O)cc1` (stereo unspecified) had a melting point of 225 °C.
The result for `O=C1CCN(Cc2cc([N+](=O)[O-])ccc2O)CC1C(c1ccc(F)cc1)c1ccc(F)cc1` (stereo unspecified) reads 169 to 170 °C; that for `CS(=O)(=O)c1ccc(-c2cc(C(F)F)nn2-c2ccc(F)cc2)cc1F`, 201 to 202 °C.
Compound `CCN(CC)CC1CN(c2c(F)cc3c(=O)c(C(=O)O)cn(C4CC4)c3c2F)CCO1` (stereo unspecified) yielded a melting point of 155 to 157 °C.
In turn, `COc1cc(C(=O)c2ccc(C(F)(F)F)cc2)cc([N+](=O)[O-])c1OC` displayed a melting point of 115 °C.
On to `COC(=O)C=C1CN=C(c2ccccc2Cl)c2cc(Cl)ccc2N1`, for which the melting point lay in the range of 154 to 158 °C.
Under `CCCCCC(=O)NS(=O)(=O)CCc1cc(OCCCC)nn1Cc1ccc(Cl)cc1Cl` stands 90 to 92 °C.
The compound `CCC(=O)Oc1cccc2c1C(=O)c1c(OC(=O)CC)cc(-c3nnn[nH]3)cc1C2=O` returned a melting point of 176 to 178 °C.
Compound `COc1ccc2cc(C(=O)O)n(CCNC(C)=O)c2c1` gave a melting point of 210 to 211 °C.
Under `Cc1c(NC(=O)c2ccc(OCC3CCOC3)cc2)ccc2cc(CNC3CCCC3)cnc12` (stereo unspecified) stands 148 to 149 °C; under `O=C(Nc1ccc(Br)c(C(F)(F)F)c1)c1cccnc1NCn1ccccc1=O`, 202 to 205 °C; under `CC(C)Oc1cc(-n2nc(Cl)n(C(F)F)c2=O)c(Cl)cc1Cl`, 115 to 119 °C.
Under `Cc1sc(-c2ccccc2)nc1COc1cc(COc2ncccc2CC(=O)O)on1` stands 109 to 110 °C; under `Cn1c(=O)c2c(ncn2Cc2noc(O)n2)n(C)c1=O`, 206 to 207 °C.
In turn, `CCC(C)N(C)C(=O)c1cc(-c2ccccc2)c2sccc2c1` (stereo unspecified) returned a melting point of 105 °C.
The result for `O=C(O)c1cc2c(Cl)cccc2s1` reads 227 to 231 °C.
In the case of `COC(=O)c1c(C(F)F)nc(C(F)(F)F)c(C(=O)OC)c1OC(C)C`, the melting point fell in the range of 41 to 42 °C.
The result for `Cc1cc2cc(CN3CCCCCC3)cnc2cc1NC(=O)c1ccc(-c2ccc(Cl)cc2)cc1F` reads 209 °C; that for `COC(=O)c1c(C)c(OC)cc(O)c1C=O`, 118 to 119 °C.
Under `COC(=O)C1Oc2ccc(C)cc2C(C)(c2ccccc2)O1` (stereo unspecified) stands 100 °C; under `CC1(C)OC(=S)Nc2ccc(-c3cc(Br)cc(OC(F)(F)F)c3)cc21`, 192 to 193 °C; under `O[C@@H]1C=CO[C@H](COCc2ccccc2)[C@H]1OCc1ccccc1`, 53 °C.
Turning to `COc1ccc2c(c1)CCCC2(CO)NC(=O)c1c(F)cccc1F` (stereo unspecified), the melting point fell in the range of 174 to 175 °C.
The result for `CCCCc1nc(CO)c(Sc2ccccc2)n1Cc1ccc(-c2ccccc2C(=O)O)cc1` reads 220 °C.
`CCCCn1c(COCC)nc2c(N)nc3ccc(-c4ccccc4)cc3c21` registered a melting point of 186 to 187 °C.
The result for `Cc1cc2c(cc1O)C(C)(C)CC1(CC(C)(C)c3cc(OC(C)(C)C(=O)O)c(C)cc3O1)O2` (stereo unspecified) reads 99 to 101 °C; that for `COc1ccc(C(=O)Nc2ccccc2)cc1NS(=O)(=O)c1ccccc1`, 190 to 194 °C.
Under `CCc1ccc(S(=O)O)cc1Cl` stands 58 to 60 °C; under `C1=C(/C=C/c2ccsc2)CCN(Cc2nc3ccccc3[nH]2)C1`, 216 to 218 °C; under `CNC(=O)C(C)Oc1ncn(-c2ccc(Br)cc2)n1` (stereo unspecified), 176 to 178 °C.
Under `O=C(OC(c1ccccc1)c1ccccc1)C1=C(Sc2ccccc2)CC2CC(=O)C12` (stereo unspecified) stands 148 to 150 °C.
Take `COC(=O)CS(=O)(=O)CCCCCn1nc(-c2ccccc2)c(-c2ccccc2)c1-c1ccccc1`: the melting point stood at 102 °C.
The result for `CC(C)NCC(O)COc1cccnc1N` (stereo unspecified) reads 110 °C; that for `Cc1nc(C)c(Cl)c(CNCc2ccc(Oc3ccc4ncc([N+](=O)[O-])n4n3)cn2)n1`, 183 to 184 °C.
The result for `CCn1c(=O)n(-c2ccc(Oc3nc4ccccc4n3C)cc2)c2ncc(Cl)cc21` reads 208 to 210 °C.
Compound `COC(=O)N(C)CC#CCn1ccnc1` showed a melting point of 113 to 115 °C.
`Cn1c(CNC2CCS(=O)(=O)CC2)cc2cc(NC(=O)c3ccc(OCC4CC4)cc3)ccc21` registered a melting point of 200 to 201 °C.
Under `CCOC(=O)CCC(=O)OCC(F)(F)Cn1nc(C)c(-c2ccc3c(c2)NC(=O)CO3)c1-c1ccc(F)cc1` stands 100 °C; under `CCc1onc(-c2ccccc2)c1-c1ccccc1`, 85 to 87 °C.
The result for `O=C(N[C@H]1CC[C@H](CCN2CCC(c3cccc4c3CCO4)CC2)CC1)c1ccccc1` reads 220 °C; that for `O=C1CN=C(c2ccc(O)cc2)c2cc(Cl)ccc2N1`, 271 to 272 °C; that for `Cc1ccc(CC(CS)C(=O)Nc2cccc(C(=O)O)c2C)cc1` (stereo unspecified), 194 to 196 °C.
The result for `CCCc1c(C(C)C)nn2ccccc12` reads 41 to 42 °C; that for `NC(=O)c1cc(-c2ccnc(Nc3cccc(C(F)(F)F)c3)n2)ccn1`, 240 to 242 °C.
Compound `O=C(O)CCC(=NO)c1ccc(-n2cccn2)cc1` yielded a melting point of 128 to 130 °C.
Take `COCCCCCCCCCCCCCCSCCCO`: the melting point was 35 to 37 °C.
`CC(=O)Nc1cnc(C=NNC(N)=S)cc1C`: the melting point lay within 229 to 231 °C.
The result for `CCC1=Nc2c(C)nn(C)c2C2=NC(C)CN12` (stereo unspecified) reads 153 to 155 °C; that for `CC(C)C(CS(=O)(=O)c1ccc(-c2cccc(CNC(=O)c3nc4ccccc4c(=O)[nH]3)c2)cc1)N(O)C=O` (stereo unspecified), 153 to 155 °C; that for `C#CC1(OC(C)=O)CCC2C3CCC4=CC(=O)C=CC4(C)C3CCC21C` (stereo unspecified), 172 to 173 °C.
`NC(Cc1ccc2c(c1)CCC2)=NO` gave a melting point of 60 °C.
`O=C1Cc2ccccc2Sc2c1ccc(Cl)c2Cl` registered a melting point of 133 to 135 °C.
The result for `CCOC(=O)CCCCCNS(=O)(=O)c1ccc(Cl)cc1` reads 102 to 105 °C.
Under `O=C(O)CSC(c1ccccc1)(c1ccccc1)c1ccccc1` stands 158 to 160 °C; under `COC(=O)C(=O)c1ccc(OCCOc2ccc3ccccc3c2)cc1Cl`, 123 to 125 °C; under `CSC(=S)NN=Cc1nc[nH]c1C`, 180 °C.
Under `O=Cc1cc2c3ccccc3c3ccccc3c2o1` stands 84 to 85 °C; under `CCOCc1nc2c(N)nc3cc(OCCCCCCNC(=S)NC(C)C)ccc3c2n1CC(C)(C)NC(C)=O`, 110 to 120 °C; under `COc1ccc(-n2c(CC(=O)O)c(C(=O)O)c3cc(Oc4ccc(C(F)(F)F)cc4)ccc32)cc1`, 248 to 250 °C.
The compound `CC(C)(C)OC(=O)Nc1nc(/C(=N/OC(c2ccccc2)(c2ccccc2)c2ccccc2)C(=O)O)cs1` gave a melting point of 157 to 158 °C.
The result for `CCOc1nc2ccccc2nc1N(C)C(=O)N1CCN(c2cc(OC)cc(OC)c2)CC1` reads 159 to 161 °C; that for `Fc1cccc(Cl)c1-c1c(Cl)cc(-c2ccccn2)nc1Cl`, 45 °C; that for `N#Cc1ccc2cc(CCCc3cc4ccc(C#N)cc4o3)oc2c1`, 199 to 201 °C.
The result for `CP(C)(=O)C(CC(=O)O)C(=O)O` (stereo unspecified) reads 174 to 177 °C; that for `CCn1nc(-c2ccccc2)c(C(C)=O)c(N)c1=O`, 151 to 153 °C.
Under `COC(=O)C(CCSC)NC(=O)c1ccc(NCC2CC(O[Si](C)(C)C(C)(C)C)CN2C(=O)OC(C)(C)C)cc1-c1ccccc1` (stereo unspecified) stands 48 °C; under `CN1CCC(=C2c3ccccc3C3=C(c4ccccc42)C2(C)C=CC3O2)CC1` (stereo unspecified), 175 to 177 °C.
Take `COCCOc1ccc(COC(C)=O)c(Oc2ncc(C(F)(F)F)cc2Cl)c1`: the melting point lay in the range of 52.5 to 53 °C.

As a reminder, the melting point is the temperature of the solid-liquid transition.
